This is an account of results in BindingDB's records for doi:10.1016/j.chembiol.2006.05.015 (The Scripps Research Institute, 2006).

The target in assay [1] is T1, Tyrosine-protein kinase ABL1 [1-999,Q252H] (Homo sapiens, UniProt P00519, Q252H).
T1 construct: 1-999
Put plainly: Biochemcial Assay. The following applies: pH 7.5. The source says: An in vitro kinase assay using phosphorylated recombinant human Abl kinase domains to phosphorylate a peptide substrate.

Assay [2] deals with T1, Tyrosine-protein kinase ABL1 [1-999,Q252H]. Put plainly: Biochemcial Assay. The following applies: pH 7.5. The text has this: An in vitro kinase assay using dephophorylated conformationally inactive Abl kinase was obtained by treating pure recombinant Abl with Yersinia […] phosphatase from Calbiochem.
The source holds these as a separate data set.

A word on the IC50: it is the concentration at which inhibition is half-maximal. Low readings indicate inhibition by little substance, high ones a need for much substance.

Bounds are passed on as bounds.

With `Cc1ccc(Cl)cc1Nc1nccc(-c2cccnc2)n1` [Type I progenitor, 1], the IC50 in assay [1] and in assay [2] was > 5000 nM in each case.
`O=[N+]([O-])c1ccc(Oc2ncnc3[nH]ccc23)cc1` [Type I progenitor, 4]: the IC50 in assay [1] and in assay [2] was > 5000 nM in each case.
For the compound `O=C(Nc1ccc(N2CCOCC2)cc1)c1cc2cnc3[nH]ccc3c2s1` [Type I progenitor, 7], the IC50 in assay [1] and in assay [2] was > 5000 nM in each case.
For the compound `CC(O)c1cccc(Nc2ncc3cc(-c4c(Cl)cccc4Cl)c(=O)n(C)c3n2)c1` (stereo unspecified) [Type I progenitor, 11], the values for the IC50 in assay [1] and in assay [2] were 5.7 nM and 5.8 nM, respectively.
For `Cc1ccc(NC(=O)c2cccc(C(F)(F)F)c2)cc1Nc1nccc(-c2cccnc2)n1` [Type II inhibitor, 2], the IC50 in assay [1] came out at 152 nM; in assay [2], 5 nM.
Turning to `Cc1ccc(N(C)C(=O)c2cccc(C(F)(F)F)c2)cc1Nc1nccc(-c2cccnc2)n1` [Type II inhibitor, 3], the IC50 is > 5000 nM in assay [1] and 1360 nM in assay [2].
For `O=C(Nc1ccc(Oc2ncnc3[nH]ccc23)cc1)Nc1cccc(C(F)(F)F)c1` [Type II inhibitor, 5], the IC50 is > 5000 nM in assay [1] and 374 nM in assay [2].
For `O=C(Cc1cccc(C(F)(F)F)c1)Nc1ccc(Oc2ncnc3[nH]ccc23)cc1` [Type II inhibitor, 6], the IC50 in assay [1] and in assay [2] was > 5000 nM each time.
Consider `Cc1cc(NC(=O)c2cccc(C(F)(F)F)c2)ccc1NC(=O)c1cc2cnc3[nH]ccc3c2s1` [Type II inhibitor, 8], for which the IC50 in assay [1] is > 5000 nM; in assay [2] it was 154 nM.
On to `Cc1cc(N(C)C(=O)c2cccc(C(F)(F)F)c2)ccc1NC(=O)c1cc2cnc3[nH]ccc3c2s1` [Type II inhibitor, 10], for which the IC50 in assay [1] and in assay [2] was > 5000 nM each time.
On to `CC(O)c1cccc(Nc2ncc3cc(-c4cc(NC(=O)c5cccc(C(F)(F)F)c5)ccc4Cl)c(=O)n(C)c3n2)c1` (stereo unspecified) [Type II inhibitor, 12], for which the figures for the half-maximal inhibitory concentration (IC50) in assay [1] and in assay [2] were 19.6 nM and 27.2 nM, respectively.
As to `CC(O)c1cccc(Nc2ncc3cc(-c4cc(N(C)C(=O)c5cccc(C(F)(F)F)c5)ccc4Cl)c(=O)n(C)c3n2)c1` (stereo unspecified) [Type II inhibitor, 13], the IC50 in assay [1] came out at 150 nM; in assay [2], 9.1 nM.
For `Cc1ccc(N(C)C(=O)c2cccc(C(F)(F)F)c2)cc1N1Cc2cnc(N)nc2N(C)C1=O` [Type II inhibitor, 15], in that order: > 5000 nM and > 5000 nM.
